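Interpolation was linear, between the two tested concentrations surrounding the appropriate level; five concentrations were tested over 48 hours in 96-well plates. GI50 = concentration required for 50% inhibition of growth.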 Calls of active or inactive are those of the source. Cut-off read from the data, not from the text of the source: active = GI50 up to about 1.1 µM and inactive = higher.
Assays:
Assay in all cases: growth of human tumour cells (NCI), 48 h
LXFL 529 = tested on: LXFL 529
XF498 = tested on: XF498
DMS-273 = tested on: DMS-273
M19-MEL = tested on: M19-MEL
HOP-18 = tested on: HOP-18
RXF 631 = tested on: RXF 631
DLD-1 = tested on: DLD-1
KM-20L2 = tested on: KM-20L2
DMS-114 = tested on: DMS-114

Row | SMILES | GI50 (LXFL 529) | GI50 (XF498) | GI50 (DMS-273) | GI50 (M19-MEL) | GI50 (HOP-18) | GI50 (RXF 631) | GI50 (DLD-1) | GI50 (KM-20L2) | GI50 (DMS-114)
1 | CCN(CC)Cc1cc(Nc2c3ccccc3nc3c4ccccc4n(C)c23)ccc1O | 4.8 µM (inactive) | 4.84 µM (inactive) | 5.64 µM (inactive) | 7.85 µM (inactive) | 14.1 µM (inactive) | 3.18 µM (inactive) | 6.76 µM (inactive) | 5.45 µM (inactive) | 6.37 µM (inactive)
2 | CCCCCCCCCCCCCCCCCCOCC1(COP(=O)([O-])OCC[N+](C)(C)C)CCCO1 (centres undefined) | 4.92 µM (inactive) | 7.64 µM (inactive) | 1.75 µM (inactive) | 2.99 µM (inactive) | 2.82 µM (inactive) |  | 3.65 µM (inactive) | 3.26 µM (inactive) | 5.16 µM (inactive)
3 | Sc1ncnc2c1ncn2C1CCCO1 (centres undefined) | > 100 µM (inactive) |  | 76.2 µM (inactive) |  | > 100 µM (inactive) |  | 89.9 µM (inactive) | > 100 µM (inactive) | 65.8 µM (inactive)
4 | NC(=O)COC(=O)c1c(Cl)nc2sccn12 | > 65.5 µM (inactive) | > 100 µM (inactive) | 81.7 µM (inactive) | > 84.3 µM (inactive) | > 100 µM (inactive) | > 100 µM (inactive) | > 100 µM (inactive) | > 100 µM (inactive) | > 52.1 µM (inactive)
5 | O=C1NC2C(O)CCCCC2C12CCCCC2 (centres undefined) | > 100 µM (inactive) | > 100 µM (inactive) | > 100 µM (inactive) | > 100 µM (inactive) | > 100 µM (inactive) | > 100 µM (inactive) | > 100 µM (inactive) |  | > 100 µM (inactive)
6 | CN1C[C@@H]2CC(=O)CC[C@@H]2C[C@H]1C#N | > 100 µM (inactive) | > 100 µM (inactive) |  |  |  | > 100 µM (inactive) | > 100 µM (inactive) | > 100 µM (inactive) | > 100 µM (inactive)
7 | Cc1cc2c(=O)cc(-c3ccc(C(=O)O)cc3)oc2c(C(=O)O)c1C | > 100 µM (inactive) |  | > 100 µM (inactive) | > 100 µM (inactive) | > 100 µM (inactive) | > 100 µM (inactive) | > 100 µM (inactive) | > 100 µM (inactive) | > 100 µM (inactive)
8 | CCC1OCCN1C(C)C (centres undefined) | > 100 µM (inactive) |  | 69.2 µM (inactive) | 71.4 µM (inactive) |  |  | 92 µM (inactive) | > 100 µM (inactive) | 85.9 µM (inactive)
9 | COc1ccc(Br)c(N/N=C2\CCCNC2=O)c1 | > 100 µM (inactive) | 69.2 µM (inactive) | > 100 µM (inactive) | > 100 µM (inactive) | 39.6 µM (inactive) | > 100 µM (inactive) | > 100 µM (inactive) | > 100 µM (inactive) | 90.8 µM (inactive)
10 | CCOC(=O)C1=C(NC(C)(C)C)OCC1=O | > 100 µM (inactive) | > 100 µM (inactive) |  |  |  | > 100 µM (inactive) | > 100 µM (inactive) | > 100 µM (inactive) | 
11 | C=C1C2CCCC1C1(S(C)(=O)=O)CCCCC21O (centres undefined) | > 100 µM (inactive) |  | > 100 µM (inactive) | > 100 µM (inactive) | > 100 µM (inactive) |  | > 100 µM (inactive) | > 100 µM (inactive) | > 100 µM (inactive)
12 | COC(=O)[C@@]12C=CC(=O)[C@H]3C[C@@H](C(C(C)C)C1)[C@]32OC (some centres undefined) | > 100 µM (inactive) | > 100 µM (inactive) | > 100 µM (inactive) | > 100 µM (inactive) | > 100 µM (inactive) | > 100 µM (inactive) | > 100 µM (inactive) | > 100 µM (inactive) | > 100 µM (inactive)
13 | N#Cc1ccccc1Nc1ccccc1S | 22.5 µM (inactive) | 18 µM (inactive) | 34.5 µM (inactive) | 39.4 µM (inactive) | 89.7 µM (inactive) | 37.8 µM (inactive) | 35.6 µM (inactive) |  | 21.8 µM (inactive)
14 | COC1C(O)C(C)OC(OC2C(Oc3cccc4c(O)c5c(=O)oc6ccc(C)c7c(=O)oc(c34)c5c67)OC(C)C3O[C@H](c4ccccc4)OC32)C1O (some centres undefined) | 0.0678 µM (active) |  | 0.0206 µM (active) | 0.156 µM (active) | 1.05 µM (active) | 0.0314 µM (active) | 0.0456 µM (active) | 0.055 µM (active) | 0.288 µM (active)
15 | COc1ccc(OC)c2c(C(=O)O)c(C(C)c3ccccc3)ccc12 (centres undefined) | > 100 µM (inactive) |  | > 100 µM (inactive) | > 100 µM (inactive) | > 100 µM (inactive) | > 100 µM (inactive) | > 100 µM (inactive) | > 100 µM (inactive) | 
16 | CC1(C)SCc2nc3ncccc3n21 | > 100 µM (inactive) | > 100 µM (inactive) |  | > 100 µM (inactive) |  | > 100 µM (inactive) | > 100 µM (inactive) | > 100 µM (inactive) | > 100 µM (inactive)

Row | SMILES | GI50 (LXFL 529) | GI50 (XF498) | GI50 (DMS-273) | GI50 (M19-MEL) | GI50 (HOP-18) | GI50 (RXF 631) | GI50 (DLD-1) | GI50 (KM-20L2) | GI50 (DMS-114)
17 | COc1ccc2oc3cccc(NCCN(C)C)c3c(=O)c2c1 | 13.1 µM (inactive) | 14.5 µM (inactive) | 12.1 µM (inactive) | 15.3 µM (inactive) | 11.6 µM (inactive) | 13.7 µM (inactive) | 13.1 µM (inactive) | 9.14 µM (inactive) | 12.9 µM (inactive)
18 | COC(=O)C(C(=O)C(=O)Nc1ccc(Br)cc1)c1nc2ccc(Cl)cc2nc1O (centres undefined) | > 100 µM (inactive) | > 100 µM (inactive) | > 70.6 µM (inactive) | > 100 µM (inactive) | > 100 µM (inactive) | > 100 µM (inactive) | > 100 µM (inactive) | > 100 µM (inactive) | > 80 µM (inactive)
19 | CCN(CC)CCNc1ccc2nc(C)n3c4ccc(O)cc4c(=O)c1c23 | 0.78 µM (active) |  | 0.37 µM (active) | 3.49 µM (inactive) |  | 0.331 µM (active) | 0.371 µM (active) |  | 1.42 µM (inactive)
20 | Cc1ccc(C(=O)NC2CCCCC2)cc1/N=N/N(C)C | > 100 µM (inactive) |  | > 100 µM (inactive) | > 100 µM (inactive) |  |  | > 100 µM (inactive) | > 100 µM (inactive) | 
21 | O=C(O)/C(Cl)=C(\Cl)C(=O)Nc1ccc(Cl)c(Cl)c1Cl | 20.1 µM (inactive) |  | 21 µM (inactive) | 16.8 µM (inactive) | 16.3 µM (inactive) |  | 24.5 µM (inactive) | 23.2 µM (inactive) | 20.8 µM (inactive)
22 | OCCCCCCOc1ccc(-c2cc(-c3ccccn3)nc(-c3ccccn3)c2)cc1 | 0.242 µM (active) | 1.51 µM (inactive) | 0.211 µM (active) | 0.253 µM (active) | 0.182 µM (active) |  | 0.169 µM (active) | 0.0897 µM (active) | 0.207 µM (active)
23 | CC(C)(C)C1=CC(=NNC(=S)NCc2ccccc2)C=C(C(C)(C)C)C1=O | 63.1 µM (inactive) | > 100 µM (inactive) | > 100 µM (inactive) | 98.4 µM (inactive) |  | > 100 µM (inactive) | 59.6 µM (inactive) | > 100 µM (inactive) | 54.8 µM (inactive)
24 | Cn1c(=O)nc2n(-c3ccc(Cl)cc3)c3cc(Cl)ccc3nc-2c1=O | 1.7 µM (inactive) | 1.41 µM (inactive) | 3.56 µM (inactive) | 1.75 µM (inactive) | 14.9 µM (inactive) | 1.97 µM (inactive) | 1.79 µM (inactive) | 3.44 µM (inactive) | 1.78 µM (inactive)
25 | CCOC(OCC)C(CC)[Se]c1ccccc1 (centres undefined) | 35.6 µM (inactive) | > 100 µM (inactive) | 14.1 µM (inactive) | 19.3 µM (inactive) | 65.2 µM (inactive) | 8.49 µM (inactive) | > 100 µM (inactive) | 19.5 µM (inactive) | 2.82 µM (inactive)
26 | COc1cc(Br)c(/C=N\c2cccc3ccc(OS(=O)(=O)c4cccc([N+](=O)[O-])c4)cc23)cc1OC | 14.3 µM (inactive) |  |  | 36.1 µM (inactive) | > 100 µM (inactive) |  | 35.5 µM (inactive) |  | 14.7 µM (inactive)
27 | CC(N)C(=O)OCN1C(=O)C2C3C=CC(C2C1=O)C1C2C(=O)N(COC(=O)C(C)N)C(=O)C2C31 (centres undefined) | 26.4 µM (inactive) | 19 µM (inactive) | 18.5 µM (inactive) | 23.6 µM (inactive) | > 100 µM (inactive) |  | 24.5 µM (inactive) | 28.2 µM (inactive) | 17 µM (inactive)
28 | O=c1[nH]ccc(CNC23CC4CC(CC(C4)C2)C3)c1O | > 100 µM (inactive) | > 100 µM (inactive) | > 100 µM (inactive) | > 100 µM (inactive) | > 100 µM (inactive) |  | > 100 µM (inactive) | > 100 µM (inactive) | 
29 | CCc1nc(N)nc(N)c1-c1ccc(Cl)c(N=[N+]=[N-])c1 | 6.24 µM (inactive) | 31 µM (inactive) |  | 11.9 µM (inactive) | 0.916 µM (active) |  | 5.47 µM (inactive) | 12.1 µM (inactive) | 
30 | CCN(CC)CCNc1ccc2nnn3c4ccc(O)cc4c(=O)c1c23 | 6.58 µM (inactive) |  |  |  | 20.5 µM (inactive) |  | 2.09 µM (inactive) | 4.37 µM (inactive) | 7.29 µM (inactive)
31 | COc1cc2c(c(OC)c1OC)-c1ccc(SC)c(=O)cc1[C@@H](NC(=O)c1ccc(Cl)cc1)CC2 | < 0.01 µM (active) |  | < 0.01 µM (active) | < 0.01 µM (active) |  | < 0.01 µM (active) | < 0.01 µM (active) | < 0.01 µM (active) | < 0.01 µM (active)
32 | COc1ccc2cc1Oc1ccc(cc1)C[C@H]1c3cc(c(OC)cc3CCN1C)Oc1c(OC)c(OC)cc3c1[C@H](C2)N(C)CC3 [FANCHININ] |  | 10.6 µM (inactive) | 6.31 µM (inactive) |  | 9.42 µM (inactive) |  | 9.29 µM (inactive) | 3.8 µM (inactive) | 7.36 µM (inactive)
